Consider six molecules from patent US12630571B2, “Crystal form of L-glufosinate and preparation method and use thereof” (JIANGSU SEVENCONTINENT GREEN TECHNOLOGY RESEARCH INSTITUTE …, priority 2022, dated 2026).

The structures appear in SMILES notation.

The nature of data set [1]: DSC heat absorption and decomposition temperatures (high temperature stability). It is filed as physicochemical. Conditions: for Peak: DSC endothermic peak temperature; for Start of heat absorption: DSC. As to the method: (§1) In the present application, the test instruments and conditions used in the experiment are as follows: • 1. The crystal form of the product was analyzed by X-ray powder diffractometer (XRD, Rigaku D/Max-2500 type, Cu Kα radiation, λKα=0.15406 nm), the emission voltage and current were 40 kV and 100 mA, respectively, and the scanning range was 2-40°, the scan step size was 0.02°, and the scan rate was 8°/min. • 2. Differential Scanning calorimetry (DSC) and Thermogravimetric Analysis (TGA): DSC and TGA analyses were performed using a TGA/DSC Model 1 instrument from Mettler Toledo. The DSC measurement method was as follows: take 5-10 mg of the sample into an aluminum crucible, put it into the instrument, set the nitrogen flow rate to 50 ml/min, 200 ml/min, and increase the temperature from 30° C. to 200° C. at a rate of 10° C./min, and analysis was performed using STAR software from Mettler Toledo. The TGA measurement method was as follows: take 5-10 mg of the sample into an aluminum crucible, put it into the instrument, set the nitrogen flow rate to 20 ml/min, 50 ml/min, and increase the temperature from 30° C. to 200° C. at a rate of 10° C./min, and analysis was performed using STAR software from Mettler Toledo.
For the crystal form A, crystal form B, crystal form D and crystal form E of L-glufosinate ammonium, the data comparison of its high temperature stability were shown in Table 6.

Data set [2] in a line: Hygroscopicity test. It is filed as physicochemical. Conditions: 48 h; for Weight change (%): 100 g solid. How it is done: Experimental scheme: 100 g of solids were placed under different humidity for 48 h, and re-measured whether there was a significant change in their quality, and visually inspected whether there was a significant change in their appearance, so as to determine whether the crystal form had hygroscopicity, and the specific results of the crystal forms A, B, and C were shown in Table 7, and the specific results of the crystal forms D and E were shown in Table 8.

Data set [3] can be described thus: Stability test (storage). It is filed as physicochemical. Conditions: for Appearance (change after storage) / Crystal form (change after storage) / Weight change (%): humidity 65%; for stability (in words): compared with the crystal forms in CN111065270A. How it is done: Experimental method: The crystal forms A, B, and C were stored at a temperature of 60° C. for 7 days, the crystal form changes were re-measured, and the specific results were shown in Table 9.
The crystals obtained in Embodiments 4-9 were stored for 48 days at 25° C. and 60° C., respectively, the crystal form changes were re-measured, and the specific results were shown in Table 10.

In data set [4] the test system is Alopecurus aequalis. The experiment in a line: Field efficacy experiment, plant control effect. It is filed as in vivo. Conditions: 10% aqueous solution, 120 mL/mu, 7 days after treatment. How it is done: (§2) The combination of preparation processing and field efficacy test was adopted below.
(§3) The above-mentioned formulations were prepared with the crystals of the embodiments of the present disclosure and the crystal form A in the patent CN111065270A respectively for field efficacy experiments. It was detected that the physical and chemical properties of the aqueous solution products prepared by each crystal form were stable and met the needs of production and use, and at the same time, field experiments were carried out on different weeds. The dosage was 120 mL/mu.
(§4) Referring to the “Pesticide-Guidelines for the field efficacy trials”, 5 sites were investigated in each plot, each site was 1 square meter, and the types of weeds, the total number of plants, the symptoms of poisoning, the number of dead plants, etc. were recorded for each treatment 7 days after the treatment, and then the results of the plant control effect were counted, and the weed mortality was calculated and counted specifically.

For data set [5], the system named is Bluegrass. The experiment in a line: Field efficacy experiment, plant control effect. It is filed as in vivo. Conditions: 10% aqueous solution, 120 mL/mu, 7 days after treatment. How it is done: as §2, §3, §4
Data set [6] concerns Euphorbia helioscopia. The experiment in a line: Field efficacy experiment, plant control effect. Conditions: 10% aqueous solution, 120 mL/mu, 7 days after treatment. It is filed as in vivo. As to the method:
as §2, §3, §4

The subject of data set [7] is Rumex. The experiment in a line: Field efficacy experiment, plant control effect. It is filed as in vivo. Particulars: 10% aqueous solution, 120 mL/mu, 7 days after treatment. How it is done:
as §2, §3, §4

Data set [8] can be described thus: Thermogravimetric analysis (TGA). It is filed as physicochemical. As to the method: as §1
In data set [9] the test system is weeds such as Rumex, Alopecurus aequalis, Euphorbia helioscopia, and bluegrass. The experiment in a line: Field efficacy experiment, summary statements over all weeds. It is filed as in vivo. Particulars: difference in plant control effect. As to the method: as §2, §3, §4
Where [10] appears, read: listed as Crystal form A of L-glufosinate ammonium.
The mark [11] stands for this setting: listed as Crystal form A of Embodiment 1 of the present disclosure.
Setting [12] is: listed as Crystal form B of L-glufosinate ammonium.
[13] abbreviates: listed as Crystal form B of Embodiment 2 of the present disclosure.
Setting [14] is: listed as Crystal form D of L-glufosinate ammonium.
The mark [15] stands for this setting: listed as Crystal form D of L-Glufosinate Ammonium.
Where [16] appears, read: listed as Crystal form D of Embodiment 4 of the present disclosure.
The mark [17] stands for this setting: listed as Crystal form E of L-glufosinate ammonium.
Where [18] appears, read: listed as Crystal form E of L-Glufosinate Ammonium.
The mark [19] stands for this setting: listed as Crystal form E of Embodiment 5 of the present disclosure.

Turning to `CP(=O)(O)CC[C@H](N)C(=O)O.N` [Crystal form A, L-glufosinate ammonium], in data set [1] (setting [10]), the Peak was determined as 129° ° C and the “Start of heat absorption” value was found to be 110° ° C. In addition, the “high temperature stability (in words)” value in data set [1] (versus the ammonium salt crystal forms in the existing patent) is “better high temperature stability”. For the same molecule, the “Weight change (%)” value in data set [2] (20° C., humidity 65%, listed as A) is on record as “+0.02%”. The “Weight change (%)” value in data set [2] (20° C., humidity 80%, listed as A) is “+1.45%”. Besides, in data set [3] (60° C., 7 days), the “Appearance (change after storage)” value was “Unchanged” and the “Crystal form (change after storage)” value was “Unchanged”. The “stability (in words)” value in [3] is recorded as “excellent stability”. In addition, the “Plant control effect (%) Alopecurus aequalis” value in [4] (setting [11]) worked out at 80%. Further, the “Plant control effect (%) Bluegrass” value in [5] (setting [11]) was found to be 80%. In addition, the “Plant control effect (%) Euphorbia helioscopia” value in data set [6] (setting [11]) is 80%.
As for `CP(=O)(O)CC[C@H](N)C(=O)O.N` [Crystal form B, L-glufosinate ammonium], in [1] (setting [12]), the Peak came out at 134° ° C and the “Start of heat absorption” value was found to be 125° ° C. In addition, in [2] (20° C., humidity 65%, listed as B), the “Weight change (%)” value was “+0.03%”. Besides, the “Weight change (%)” value in [2] (20° C., humidity 80%, listed as B) was “+1.55%”. The “Plant control effect (%) Alopecurus aequalis” value in data set [4] (setting [13]) came out at 85%. Moreover, the “Plant control effect (%) Bluegrass” value in [5] (setting [13]) worked out at 80%. Besides, the “Plant control effect (%) Euphorbia helioscopia” value in data set [6] (setting [13]) worked out at 80%. In addition, the “Plant control effect (%) Rumex” value in [7] was determined as 100%.
With `CP(=O)(O)CC[C@H](N)C(=O)O` [Crystal form C, L-glufosinate], the “Weight change (%)” value was “+0.02%” in [2] (20° C., humidity 65%) and “+1.54%” in data set [2] (20° C., humidity 80%). In [3] (60° C., 7 days), the “Appearance (change after storage)” value is reported as “Unchanged”. The “Crystal form (change after storage)” value in data set [3] (60° C., 7 days) was “Unchanged”. For the same molecule, the “stability (in words)” value in [3] is “excellent stability”.
As to `CP(=O)(O)CC[C@H](N)C(=O)O.N` [Crystal form D, L-glufosinate ammonium], the Peak in [1] (setting [14]) is 179.83° ° C. In data set [1] (setting [14]), the “Start of heat absorption” value is given as 161.84° ° C. Also, the “temperature below which the weight of the crystal was basically unchanged” value in data set [8] (setting [15]) came out at 139.5 °C. The “temperature from which weight decreased rapidly (decomposition)” value in [8] (setting [15]) worked out at 206.5 °C. For the same molecule, in data set [8] (setting [15]), the “temperature from which weight started to decrease slowly (release of ammonia gas)” value is 139.5 °C. In addition, the Appearance change result is on record as “Unchanged” in data set [2] (25° C., humidity 65%) and “Unchanged” in [2] (25° C., humidity 80%). In addition, the “Weight change (%)” value is recorded as “+0.03%” in data set [2] (25° C., humidity 65%, listed as Embodiment 4); “+0.03%” in [2] (25° C., humidity 65%, listed as Embodiment 6); “+0.01%” in [2] (25° C., humidity 65%, listed as Embodiment 7); “+1.12%” in data set [2] (25° C., humidity 80%, listed as Embodiment 4); “+1.17%” in data set [2] (25° C., humidity 80%, listed as Embodiment 6); “+1.12%” in [2] (25° C., humidity 80%, listed as Embodiment 7). Further, the “Weight change (%)” value is recorded as “+0.03%” in data set [3] (25° C., 48 days, listed as Embodiment 4); “+0.03%” in [3] (25° C., 48 days, listed as Embodiment 6); “+0.01%” in data set [3] (25° C., 48 days, listed as Embodiment 7); “+0.02%” in data set [3] (60° C., 48 days, listed as Embodiment 4); “+0.02%” in [3] (60° C., 48 days, listed as Embodiment 6); “+0.01%” in data set [3] (60° C., 48 days, listed as Embodiment 7). Moreover, in [3] (60° C., 48 days), the “Appearance (change after storage)” value is on record as “Unchanged”. The “Crystal form (change after storage)” value in data set [3] (60° C., 48 days) is “Unchanged”. In addition, the “storage stability (in words)” value in [3] (at 25° C. and 60° C.) was “excellent storage stability”. Also, the “Plant control effect (%) Alopecurus aequalis” value in [4] (setting [16]) is listed as 86%. Moreover, the “Plant control effect (%) Bluegrass” value in data set [5] (setting [16]) was found to be 85%. Also, the “Plant control effect (%) Euphorbia helioscopia” value in data set [6] (setting [16]) was 85%. The “efficacy higher than other crystal forms of the ammonium salt” value in data set [9] was “about 5%”.
Take `CP(=O)(O)CC[C@H](N)C(=O)O.N` [Crystal form E, L-glufosinate ammonium]: the Peak in data set [1] (setting [17]) was found to be 185.833° ° C. In data set [1] (setting [17]), the “Start of heat absorption” value came out at 147° ° C. Moreover, the “temperature below which the weight of the crystal was basically unchanged” value in data set [8] (setting [18]) was 95.5 °C. Moreover, the “temperature from which weight decreased rapidly (decomposition)” value in data set [8] (setting [18]) was 226.5 °C. Besides, in data set [8] (setting [18]), the “temperature from which weight started to decrease slowly (release of ammonia gas)” value came to 147 °C. Besides, the slow weight decrease in data set [8] (starting at 95.5° C.) came out at 1.2%. For the same molecule, the “Weight change (%)” value is reported as “+0.02%” in [2] (25° C., humidity 65%, listed as Embodiment 5); “+0.02%” in data set [2] (25° C., humidity 65%, listed as Embodiment 8); “+0.02%” in [2] (25° C., humidity 65%, listed as Embodiment 9); “+1.23%” in data set [2] (25° C., humidity 80%, listed as Embodiment 5); “+1.15%” in data set [2] (25° C., humidity 80%, listed as Embodiment 8); “+1.18%” in data set [2] (25° C., humidity 80%, listed as Embodiment 9). The “Weight change (%)” value in [3] (25° C., 48 days, listed as Embodiment 5) is “+0.02%”; in data set [3] (25° C., 48 days, listed as Embodiment 8) it was “+0.02%”; in [3] (25° C., 48 days, listed as Embodiment 9), “+0.02%”; in [3] (60° C., 48 days, listed as Embodiment 5), “+0.01%”; in data set [3] (60° C., 48 days, listed as Embodiment 8), “+0.02%”; in [3] (60° C., 48 days, listed as Embodiment 9), “+0.02%”. Further, the “Appearance (change after storage)” value in data set [3] (25° C., 48 days) is on record as “Unchanged”. In addition, the “Crystal form (change after storage)” value in data set [3] (25° C., 48 days) was “Unchanged”. In data set [4] (setting [19]), the “Plant control effect (%) Alopecurus aequalis” value came out at 85%. For the same molecule, in data set [5] (setting [19]), the “Plant control effect (%) Bluegrass” value stood at 85%. Also, the “Plant control effect (%) Euphorbia helioscopia” value in [6] (setting [19]) was determined as 90%.
`CP(=O)(O)CCC(N)C(=O)O.N` (stereo not drawn) [Crystal form in CN113831364A, reference compound]: in data set [1], the “Start of heat absorption” value was 104° ° C and the Peak was 115° ° C.
